Patent US11464726B2, “1,4: 3,6 dianhydrohexitols for moisturising the skin” (ROQUETTE FRERES, priority 2017, dated 2022)

Tested on: surface layers of the skin (superficial stratum corneum)
Assay: Moisturizing efficiency of gel evaluated by corneometry
Assay type: in vivo, human
Conditions: for mean hydration value (Corneometer capacitance): gel 6% by weight + 1% carbomer, around 2 mg/cm^2, inner forearm, ten volunteers; for Mean variations in % of hydration: (T…h-T0)/T0*100, gel 6% by weight
Description: For this, these polyols were incorporated into a cosmetic preparation for topical use in gel form. […] The placebo consists only of 1% by weight of gelling carbomer in water. The moisturizing efficiency of each of the preparations for topical use was evaluated by corneometry. Corneometry is a scientifically recognized method for measuring the hydration of the surface layers of the skin. It is based on the determination of the capacitance of the superficial stratum corneum. The study was carried out with ten healthy volunteers aged from 18 to 65 years old. The moisturizing efficiency of each of the five formulae was evaluated 1 hour, 2 hours and 4 hours after its application in the laboratory on the inner face of the forearm. […] For each formula, an amount of around 2 mg/cm^2 was applied to an area of 3×3 cm, in non-occlusive epicutaneous mode. In addition to the zones treated with the five formulae, two additional zones were evaluated: one treated with a placebo and the other without treatment for the duration of the study. The measurements were carried out with a Corneometer® CM285 included in a Multiprobe Adapter System MPA® (Courage-Khazaka GmbH, Germany). The instrument determines the capacitance of the epidermis, which is proportional to the water content thereof, at a depth of around 15 μm. This method is based on the difference between the electrical permittivity of the water which is 81 and that of other substances (<7). The probe of the Corneometer (surface area of 49 mm^2) is positioned perpendicular to the test area which was delimited beforehand with a pencil. The measurement of the capacitance lasts 1 second. Each measurement is carried out twice and the average of the two measurements is noted. The instrument gives the values in arbitrary units ranging from 0 to 130, with an error margin of ±3%. Each volunteer rested for around 1 minute in an air-conditioned room before each measurement with the Corneometer® in order to avoid abnormal results due to excessive perspiration or stress. Table 2 below reports the mean hydration values expressed in arbitrary units (AU).

Compound | mean hydration value (Corneometer capacitance) (T0, before application) [AU] | mean hydration value (Corneometer capacitance) (T1 h after application) [AU] | Mean variations in % of hydration (T1 h vs T0) [%] | mean hydration value (Corneometer capacitance) (T2 h after application) [AU] | Mean variations in % of hydration (T2 h vs T0) [%] | mean hydration value (Corneometer capacitance) (T4 h after application) [AU] | Mean variations in % of hydration (T4 h vs T0) [%] | moisturizing power given to the gel (in words, short-term hydration and maintenance over time (T4h vs T0))
C[N+](C)(C)CC(=O)O [Betaine] | 43.39 | 55.61 | 28.2 | 54.30 | 25.1 | 50.74 | 16.9 | –
OCC(O)CO [Glycerol] | 42.03 | 57.05 | 35.7 | 56.15 | 33.6 | 56.57 | 34.6 | –
OC[C@@H](O)[C@@H](O)[C@H](O)[C@@H](O)CO [Sorbitol] | 48.60 | 54.16 | 11.4 | 49.11 | 1.0 | 46.91 | −3.5 | –
O[C@@H]1CO[C@H]2[C@@H]1OC[C@@H]2O [Isosorbide, 1,4:3,6-dianhydrosorbitol] | 46.54 | 56.60 | 21.6 | 52.88 | 13.6 | 52.50 | 12.8 | satisfactory moisturizing power, comparable to that of betaine
OC[C@@H](O)[C@H](O)[C@@H](O)CO [Xylitol] | 45.94 | 55.37 | 20.5 | 52.68 | 14.7 | 45.28 | −1.4 | –
